A value given as a limit tells only on which side of the number the result lay.

The test system of one assay is A549 cells. Nature of the assay: Proliferation Assay (A549 cell viability, Cell Titer Fluor). Format: cell-based. As to conditions: Homo sapiens, 72 hours. An outline of the steps:
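A549 cells in RPMI 1640 with 10% dialyzed FBS were seeded at 1000 cells/well, grown 24 h, then exposed to compound (0.5% DMSO final) for 72 h at 37 °C, 5% CO2. Viability was read by Cell Titer Fluor fluorescence; EC50 from four-parameter logistic fit.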

For assay [1], the target named is T1, purified recombinant human GAC (GLS1) (Homo sapiens, UniProt O94925).
T1 sequence (O94925 55-598 isoform O94925-3 limits assumed): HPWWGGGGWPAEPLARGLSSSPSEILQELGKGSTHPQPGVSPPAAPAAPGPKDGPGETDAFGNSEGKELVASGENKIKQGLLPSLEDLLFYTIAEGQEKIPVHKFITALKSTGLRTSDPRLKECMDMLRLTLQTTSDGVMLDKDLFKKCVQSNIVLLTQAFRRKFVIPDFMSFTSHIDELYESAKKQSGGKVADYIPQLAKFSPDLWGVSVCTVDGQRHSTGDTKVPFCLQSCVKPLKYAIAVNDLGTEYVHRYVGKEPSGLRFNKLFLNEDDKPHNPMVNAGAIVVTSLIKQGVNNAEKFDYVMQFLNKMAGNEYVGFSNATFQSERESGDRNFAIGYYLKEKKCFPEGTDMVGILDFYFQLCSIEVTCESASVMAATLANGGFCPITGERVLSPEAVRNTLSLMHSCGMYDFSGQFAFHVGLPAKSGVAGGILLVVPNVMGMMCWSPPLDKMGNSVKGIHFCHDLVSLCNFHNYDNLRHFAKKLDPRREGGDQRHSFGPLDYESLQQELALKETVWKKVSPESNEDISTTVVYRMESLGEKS
The assay is described as follows: GLS1 Enzymatic Activity Assay (dual-coupled enzymatic assay). The assay is classed as biochemical. An outline of the steps: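 In this coupled fluorometric format, phosphate-activated GAC (2 nM, 50 mM phosphate) is pre-exposed to compound for 10 min before 1 mM glutamine addition. Product is tracked as resorufin (530/590 nm) over time or at 20 min, and potency is derived by logistic fitting.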

The compound `Cc1ccc(CNC(=O)c2cn(CCCCc3cc4cc(-c5ccc(F)cc5F)[nH]c4nn3)nn2)cn1` [Example 183, 1-{4-[6-(2,4-difluorophenyl)-7H-pyrrolo[2,3-c]pyridazin-3-yl]butyl}-N-[(6-methylpyridin-3-yl)methyl]-1H-1,2,3-triazole-4-carboxamide] came in with an EC50 with A549 cells of 100 to 500 nM. Moreover, in assay [1], the IC50 is below 100 nM.
As for `O=C(NCc1cc(C(F)(F)F)ccn1)c1cn(CCCCc2cc3c(-c4ccoc4)c(C4CC4)[nH]c3nn2)nn1` [Example 184, 1-{4-[6-cyclopropyl-5-(furan-3-yl)-7H-pyrrolo[2,3-c]pyridazin-3-yl]butyl}-N-{[4-(trifluoromethyl)pyridin-2-yl]methyl}-1H-1,2,3-triazole-4-carboxamide], the EC50 with A549 cells was below 100 nM. In assay [1], the IC50 was below 100 nM.
In the assay with A549 cells, `CC(C)COC(=O)N1CC(c2cc3cc(CCCCn4cc(C(=O)NCc5cc(OC(F)(F)F)ccc5F)nn4)nnc3[nH]2)C1` [Example 185, 2-methylpropyl 3-(3-{4-[4-({[2-fluoro-5-(trifluoromethoxy)phenyl]methyl}carbamoyl)-1H-1,2,3-triazol-1-yl]butyl)-7H-pyrrolo[2,3-c]pyridazin-6-yl)azetidine-1-carboxylate] showed an EC50 below 100 nM. Moreover, the IC50 in assay [1] is below 100 nM.
In the assay on A549 cells, `O=C(NCc1cccc(C(F)(F)F)n1)c1cn(CCCCc2cc3c(-c4ccoc4)c(C4CC4)[nH]c3nn2)nn1` [Example 186, 1-{4-[6-cyclopropyl-5-(furan-3-yl)-7H-pyrrolo[2,3-c]pyridazin-3-yl]butyl}-N-{[6-(trifluoromethyl)pyridin-2-yl]methyl}-1H-1,2,3-triazole-4-carboxamide] registered an EC50 below 100 nM. In addition, the IC50 in assay [1] is below 100 nM.
In turn, `O=C(NCc1ccc(C(F)(F)F)cn1)c1cn(CCCCc2cc3c(-c4ccoc4)c(C4CC4)[nH]c3nn2)nn1` [Example 187, 1-{4-[6-cyclopropyl-5-(furan-3-yl)-7H-pyrrolo[2,3-c]pyridazin-3-yl]butyl}-N-{[5-(trifluoromethyl)pyridin-2-yl]methyl}-1H-1,2,3-triazole-4-carboxamide] gave an EC50 in the assay on A549 cells of 100 to 500 nM. Besides, the IC50 in assay [1] was below 100 nM.
For `O=C(NCc1ccc(C(F)(F)F)nc1)c1cn(CCCCc2cc3c(-c4ccoc4)c(C4CC4)[nH]c3nn2)nn1` [Example 188, 1-{4-[6-cyclopropyl-5-(furan-3-yl)-7H-pyrrolo[2,3-c]pyridazin-3-yl]butyl}-N-{[6-(trifluoromethyl)pyridin-3-yl]methyl}-1H-1,2,3-triazole-4-carboxamide], the EC50 with A549 cells lay within 100 to 500 nM. For the same compound, the IC50 in assay [1] is below 100 nM.
For `O=C(NCc1cncc(C(F)(F)F)c1)c1cn(CCCCc2cc3c(-c4ccoc4)c(C4CC4)[nH]c3nn2)nn1` [Example 189, 1-{4-[6-cyclopropyl-5-(furan-3-yl)-7H-pyrrolo[2,3-c]pyridazin-3-yl]butyl}-N-{[5-(trifluoromethyl)pyridin-3-yl]methyl}-1H-1,2,3-triazole-4-carboxamide] the same measures were below 100 nM and below 100 nM.
In the same order, the values of `Cc1ccc(CNC(=O)c2cn(CCCCc3cc4cc(-c5ccccc5F)[nH]c4nn3)nn2)cn1` [Example 190, 1-{4-[6-(2-fluorophenyl)-7H-pyrrolo[2,3-c]pyridazin-3-yl]butyl}-N-[(6-methylpyridin-3-yl)methyl]-1H-1,2,3-triazole-4-carboxamide] are below 100 nM and below 100 nM.
With `O=C(NCc1cc(C(F)(F)F)ccn1)c1cn(CCCCc2cc3cc(-c4ccccc4F)[nH]c3nn2)nn1` [Example 191], the EC50 with A549 cells lay within 100 to 500 nM. In addition, in assay [1], the 50% inhibitory concentration (IC50) is below 100 nM.
`CC(C)(C)C(=O)N1CC(c2cc3cc(CCCCn4cc(C(=O)NCc5cc(OC(F)(F)F)ccc5F)nn4)nnc3[nH]2)C1` [Example 192, 1-(4-(6-[1-(2,2-dimethylpropanoyl)azetidin-3-yl]-7H-pyrrolo[2,3-c]pyridazin-3-yl}butyl)-N-{[2-fluoro-5-(trifluoromethoxy)phenyl]methyl}-1H-1,2,3-triazole-4-carboxamide] had an EC50 in the assay with A549 cells below 100 nM. The IC50 in assay [1] was below 100 nM.

As a reminder, the EC50 is the midpoint of the concentration-response curve. In general, IC50 refers to the concentration that inhibits the measured activity by half.

Values taken from patent publication US20160002248A1, “GLS1 INHIBITORS FOR TREATING DISEASE” (Board of Regents, The University of Texas System, priority 2014, published 2016).
